This is an account of results in US10239825B2, “Ketamine derivatives” (Auckland Uniservices Limited, priority 2013, dated 2019).

Data set [1] has as its system adult female Sprague-Dawley rats. Put plainly: rat infusion study: pedal withdrawal reflex PWR = 1 (analgesic effect). The format is in vivo. Conditions: for minimal effective dose: Rattus norvegicus, iv; for minimal effective dose / PWR = 1 Dose: total drug administered to achieve PWR = 1, i.v. infusion; for PWR = 1 Dose, head-to-head ratio to ketamine / PWR = 1 Time, head-to-head ratio to ketamine: ratio compound/ketamine; for PWR = 1 Time: time from onset of i.v. infusion to PWR = 1. On the procedure:
(§1) All animal experiments were conducted at the Ruakura Research Centre, Hamilton, New Zealand, using experimental protocols reviewed and approved by the Ruakura Animal Ethics Committee (ethics ref 12604).
(§2) Following acquisition of baseline physiologic parameters (heart rate, respiratory rate, PWR, and righting reflex (RR)) adult female Sprague-Dawley rats of approximately 350-450 g were put under non-traumatic restraint and the marginal vein of the tail was cannulated. Ketamine or a compound of the invention at 10 mg/ml was administered via a minibore extension tube adequately secured to the tail. Infusions were commenced at a rate (weight-adjusted) to deliver 20 mg/kg/min initially (until the pedal withdrawal reflex score PWR=1), then were reduced to a rate of 6.7 mg/kg/min. Infusion rate was then titrated in an up-and-down fashion to maintain dorsal recumbency and a PWR=1 to 10 minutes before cessation. Three rats were used in each study, with each group of rats also acting as their own ketamine control. The order of study drug administration was determined by prior odds/evens randomisation with a recovery interval of at least one hour afforded between experiments. PWR and RR were recorded at 1 minute intervals throughout. The times from cessation of infusion to return of righting reflex (RRR), and from cessation of infusion to the animals displaying independent locomotion (walk) were recorded.
Pedal Withdrawal Reflex (PWR) Scoring:
Nociceptive testing in animals was conducted via 1 second application of constant pressure (firm digital pressure) over the forepaw of the animal. Pedal withdrawal reflex testing is primarily used to assess analgesic effect, and responses are graded accordingly: 0, absent; 1, flicker; 2, moderate withdrawal; 3, fast withdrawal; 4, Fast withdrawal with cry/preceding apnoea (modified from Buitrago, S. et al. J. Amer. Assoc. Lab. Animal. Sci. 2008, 47, 11-17).

Data set [2] shares this test system. The data set is described as follows: rat infusion study: loss/recovery of righting reflex and walk (anaesthetic effect). The class given is in vivo. The note with it: for minimal effective dose: Rattus norvegicus, iv, read-out: LRR Dose; for minimal effective dose / LRR Dose: total drug administered to achieve loss of righting reflex, i.v. infusion; for LRR Dose, head-to-head ratio to ketamine / LRR Time, head-to-head ratio to ketamine / RRR Time, head-to-head ratio to ketamine / Walk Time, head-to-head ratio to ketamine: ratio compound/ketamine; for Walk Time: time from end of infusion to independent locomotion; for RRR Time: time from end of infusion to recovery of righting reflex; for LRR Time: time from onset of i.v. infusion to loss of righting reflex, 20 mg/kg/min initially. On the procedure:
as §1, §2
Loss of Righting Reflex (LRR):
This is primarily used to assess anaesthetic hypnotic effect. Righting reflex is judged absent when the rat fails to right from a position of dorsal recumbency to a position of sternal recumbency on three attempts performed in rapid succession. Dose to LRR is termed effective potency.

Usually melting point stands for the temperature of the solid-liquid transition. In turn, `CCOC(=O)CCNC1(c2ccccc2Cl)CCCCC1=O.Cl` (racemic) [rac-C2Et, Ethyl 3-((1-(2-chlorophenyl)-2-oxocyclohexyl)amino)propanoate Hydrochloride] displayed a melting point of 199 to 202 °C. In data set [1], the minimal effective dose was 55 ± 25 mg/kg; the “PWR = 1 Dose, head-to-head ratio to ketamine” value came to 1.45; the “PWR = 1 Time, head-to-head ratio to ketamine” value is recorded as 1.62; the “PWR = 1 Time” value was determined as 154 ± 68 s. Moreover, in data set [2], the minimal effective dose stood at 48 ± 23 mg/kg; the “LRR Dose, head-to-head ratio to ketamine” value worked out at 1.78; the “LRR Time, head-to-head ratio to ketamine” value worked out at 1.75; the “RRR Time, head-to-head ratio to ketamine” value is on record as 0.11. Also, in data set [2], the “Walk Time, head-to-head ratio to ketamine” value was found to be 0.10; the “Walk Time” value worked out at 253 ± 68 s; the “RRR Time” value stood at 177 ± 51 s; the “LRR Time” value is 135 ± 61 s.
With `CC(C)OC(=O)CCNC1(c2ccccc2Cl)CCCCC1=O.Cl` (racemic) [rac-C2iPr, Iso-Propyl 3-((1-(2-chlorophenyl)-2-oxocyclohexyl)amino)propanoate Hydrochloride], the melting point lay within 203 to 205 °C. In data set [1], the minimal effective dose turned out to be 37 ± 6 mg/kg; the “PWR = 1 Dose, head-to-head ratio to ketamine” value is on record as 1.54; the “PWR = 1 Time, head-to-head ratio to ketamine” value is reported as 1.79; the “PWR = 1 Time” value was 127 ± 13 s. In addition, in data set [2], the minimal effective dose came out at 33 ± 6 mg/kg; the “LRR Dose, head-to-head ratio to ketamine” value is 1.50; the “LRR Time, head-to-head ratio to ketamine” value is given as 1.66; the “RRR Time, head-to-head ratio to ketamine” value came out at 0.11. Moreover, in data set [2], the “Walk Time, head-to-head ratio to ketamine” value was found to be 0.14; the “Walk Time” value stood at 153 ± 33 s; the “RRR Time” value worked out at 83 ± 19 s; the “LRR Time” value is 103 ± 17 s.
Regarding `CCCOC(=O)CCNC1(c2ccccc2Cl)CCCCC1=O.Cl` (racemic) [rac-C2nPr, N-Propyl 3-((1-(2-chlorophenyl)-2-oxocyclohexyl)amino)propanoate Hydrochloride], in data set [1], the “PWR = 1 Dose, head-to-head ratio to ketamine” value turned out to be 6.48; the “PWR = 1 Time, head-to-head ratio to ketamine” value stood at 6.67; the “PWR = 1 Time” value came to 420 ± 180 s; the “PWR = 1 Dose” value is given as 136 ± 67 mg/kg. Moreover, in data set [2], the “LRR Dose, head-to-head ratio to ketamine” value was determined as 7.28; the “LRR Time, head-to-head ratio to ketamine” value stood at 7.92; the “Walk Time” value worked out at 0 s; the “RRR Time” value is 0 s. Besides, in data set [2], the “LRR Time” value stood at 404 ± 196 s and the “LRR Dose” value is 131 ± 62 mg/kg.
For `CC(=O)OCCCNC1(c2ccccc2Cl)CCCCC1=O.Cl` (racemic) [rac-C3OAc, Rac-3-((1-(2-Chlorophenyl)-2-oxocyclohexyl)amino)propyl Acetate Hydrochloride], the melting point is 180 to 183 °C.
As for `CCCOC(=O)CCCNC1(c2ccccc2Cl)CCCCC1=O.Cl` (racemic) [rac-C3nPr, N-Propyl 4-((1-(2-chlorophenyl)-2-oxocyclohexyl)amino)butanoate Hydrochloride], in data set [1], the “PWR = 1 Dose, head-to-head ratio to ketamine” value is 7.46; the “PWR = 1 Time, head-to-head ratio to ketamine” value came to 6.64; the “PWR = 1 Time” value was found to be 558 ± 42 s; the “PWR = 1 Dose” value is recorded as 209 ± 20 mg/kg. For the same compound, in data set [2], the “LRR Dose, head-to-head ratio to ketamine” value worked out at 5.95; the “LRR Time, head-to-head ratio to ketamine” value was found to be 4.77; the “RRR Time, head-to-head ratio to ketamine” value amounted to 0.012; the “Walk Time, head-to-head ratio to ketamine” value stood at 0.05. Further, in data set [2], the “Walk Time” value stood at 65 ± 33 s, the “RRR Time” value worked out at 10 ± 5.5 s, the “LRR Time” value was 329 ± 106 s and the “LRR Dose” value amounted to 137 ± 48 mg/kg.
As for `COC(=O)CCCCNC1(c2ccccc2Cl)CCCCC1=O.Cl` (racemic) [rac-C4Me, Rac-Methyl 5-((1-(2-chlorophenyl)-2-oxocyclohexyl)amino)pentanoate Hydrochloride], in data set [1], the minimal effective dose came out at 44 ± 10 mg/kg; the “PWR = 1 Dose, head-to-head ratio to ketamine” value stood at 2.00; the “PWR = 1 Time, head-to-head ratio to ketamine” value amounted to 1.53; the “PWR = 1 Time” value is 124 ± 21 s. Besides, in data set [2], the minimal effective dose stood at 34 ± 7 mg/kg; the “LRR Dose, head-to-head ratio to ketamine” value worked out at 1.70; the “LRR Time, head-to-head ratio to ketamine” value was determined as 1.31; the “RRR Time, head-to-head ratio to ketamine” value came to 0.090. Moreover, in data set [2], the “Walk Time, head-to-head ratio to ketamine” value stood at 0.086; the “Walk Time” value came out at 126 ± 32 s; the “RRR Time” value was determined as 99 ± 16 s; the “LRR Time” value came out at 92 ± 14 s. Moreover, the “properties of racemate versus enantiomer (in words)” value in data set [2] (rat infusion study, discussion) is reported as “broadly equivalent properties”.
Take `CCCOC(=O)CCCCNC1(c2ccccc2Cl)CCCCC1=O.Cl` (racemic) [rac-C4nPr, N-Propyl 5-((1-(2-chlorophenyl)-2-oxocyclohexyl)amino)pentanoate Hydrochloride]: in data set [1], the “PWR = 1 Dose, head-to-head ratio to ketamine” value turned out to be 3.19; the “PWR = 1 Time, head-to-head ratio to ketamine” value came to 3.60; the “PWR = 1 Time” value is 277 ± 97 s; the “PWR = 1 Dose” value came out at 83 ± 34 mg/kg. Moreover, in data set [2], the “LRR Dose, head-to-head ratio to ketamine” value stood at 3.56; the “LRR Time, head-to-head ratio to ketamine” value stood at 4.17; the “RRR Time, head-to-head ratio to ketamine” value amounted to 0.05; the “Walk Time, head-to-head ratio to ketamine” value was 0.08. Also, in data set [2], the “Walk Time” value turned out to be 90 ± 30 s, the “RRR Time” value is 45 ± 15 s, the “LRR Time” value came out at 271 ± 97 s and the “LRR Dose” value stood at 82 ± 34 mg/kg.
On to `CCOC(=O)CCN[C@]1(c2ccccc2Cl)CCCCC1=O.Cl` [(S)-C2Et, (S)-Ethyl 3-((1-(2-chlorophenyl)-2-oxocyclohexyl)amino) propanoate Hydrochloride], for which, in data set [1], the “PWR = 1 Dose, head-to-head ratio to ketamine” value stood at 2.38; the “PWR = 1 Time, head-to-head ratio to ketamine” value is given as 2.53; the “PWR = 1 Time” value was found to be 185 ± 55 s; the “PWR = 1 Dose” value is given as 62 ± 20 mg/kg. Besides, in data set [2] (rat infusion study, discussion), the “potency (in words)” value is recorded as “only half as potent” and the “recovery (in words)” value is given as “faster recoveries than the corresponding racemates”. Further, in data set [2], the “LRR Dose, head-to-head ratio to ketamine” value was found to be 2.95; the “LRR Time, head-to-head ratio to ketamine” value is on record as 3.22; the “RRR Time, head-to-head ratio to ketamine” value is given as 0.05; the “Walk Time, head-to-head ratio to ketamine” value is on record as 0.04. Moreover, in data set [2], the “Walk Time” value was found to be 80 ± 8 s, the “RRR Time” value stood at 62 ± 8 s, the “LRR Time” value is 171 ± 54 s and the “LRR Dose” value is recorded as 59 ± 19 mg/kg.
On to `CC(=O)OCCCN[C@]1(c2ccccc2Cl)CCCCC1=O.Cl` [(S)-C3OAc, (S)-3-((1-(2-Chlorophenyl)-2-oxocyclohexyl)amino)propyl Acetate Hydrochloride], for which, in data set [1], the minimal effective dose was found to be 34 ± 1 mg/kg; the “PWR = 1 Dose, head-to-head ratio to ketamine” value was found to be 1.10; the “PWR = 1 Time, head-to-head ratio to ketamine” value stood at 1.12; the “PWR = 1 Time” value came to 104 ± 7 s. For the same compound, in data set [2], the minimal effective dose stood at 26 ± 3 mg/kg; the “LRR Dose, head-to-head ratio to ketamine” value is listed as 1.30; the “LRR Time, head-to-head ratio to ketamine” value amounted to 1.37; the “RRR Time, head-to-head ratio to ketamine” value stood at 0.65. In data set [2], the “Walk Time, head-to-head ratio to ketamine” value is 0.51; the “Walk Time” value is 983 ± 93 s; the “RRR Time” value amounted to 566 ± 30 s; the “LRR Time” value came out at 81 ± 10 s. For the same compound, the “recovery, fold faster than ketamine” value in data set [2] (after discontinuation of infusion) is 1.5-2 fold. Moreover, the “potency (in words)” value in data set [2] (rat infusion study, discussion) is on record as “about as potent as ketamine”.
As to `COC(=O)CCCCN[C@]1(c2ccccc2Cl)CCCCC1=O.Cl` [(S)-C4Me, (S)-Methyl 5-((1-(2-chlorophenyl)-2-oxocyclohexyl)amino)pentanoate Hydrochloride], in data set [1], the “PWR = 1 Dose, head-to-head ratio to ketamine” value is reported as 1.76 and the “PWR = 1 Time, head-to-head ratio to ketamine” value was found to be 1.81. In addition, the “properties of racemate versus enantiomer (in words)” value in data set [2] (rat infusion study, discussion) is given as “broadly equivalent properties”. In data set [2], the “LRR Dose, head-to-head ratio to ketamine” value is reported as 1.80; the “LRR Time, head-to-head ratio to ketamine” value was found to be 1.94; the “RRR Time, head-to-head ratio to ketamine” value turned out to be 0.07; the “Walk Time, head-to-head ratio to ketamine” value is 0.51.
